Blank lines part the entries; values can stand above or below the compound they belong to. Activity calls are given as the source filed them.
What was measured:
[1] = biological target: T1, Zinc finger protein mex-5 (Caenorhabditis elegans, UniProt Q9XUB2); assay: potency of MEX-5 RNA-binding blockers – biochemical, C. elegans, fluorescence polarization, dose response (AID 1960)
T1 sequence (Q9XUB2 whole entry): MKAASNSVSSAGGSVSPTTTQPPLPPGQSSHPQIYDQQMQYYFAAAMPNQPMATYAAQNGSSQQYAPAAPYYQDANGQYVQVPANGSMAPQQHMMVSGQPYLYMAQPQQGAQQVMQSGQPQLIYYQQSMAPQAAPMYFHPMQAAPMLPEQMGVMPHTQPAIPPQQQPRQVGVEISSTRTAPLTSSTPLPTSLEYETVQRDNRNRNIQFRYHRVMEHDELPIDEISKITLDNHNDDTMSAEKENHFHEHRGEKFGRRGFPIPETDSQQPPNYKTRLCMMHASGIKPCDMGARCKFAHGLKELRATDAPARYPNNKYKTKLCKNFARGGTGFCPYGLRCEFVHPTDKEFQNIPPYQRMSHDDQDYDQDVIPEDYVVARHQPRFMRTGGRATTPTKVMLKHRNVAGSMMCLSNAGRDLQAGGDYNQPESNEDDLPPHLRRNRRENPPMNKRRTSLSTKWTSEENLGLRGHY

[2] = biological target: Multidrug resistance protein CDR1 (Candida albicans, UniProt P43071); assay: inhibition of Nile Red efflux via Candida CDR1 – S. cerevisiae AD1-8u, singleplex, Cherry Pick1 hits, dose response (AID 588606); assay type: functional
Chain of Multidrug resistance protein CDR1 (P43071 whole entry, looked up): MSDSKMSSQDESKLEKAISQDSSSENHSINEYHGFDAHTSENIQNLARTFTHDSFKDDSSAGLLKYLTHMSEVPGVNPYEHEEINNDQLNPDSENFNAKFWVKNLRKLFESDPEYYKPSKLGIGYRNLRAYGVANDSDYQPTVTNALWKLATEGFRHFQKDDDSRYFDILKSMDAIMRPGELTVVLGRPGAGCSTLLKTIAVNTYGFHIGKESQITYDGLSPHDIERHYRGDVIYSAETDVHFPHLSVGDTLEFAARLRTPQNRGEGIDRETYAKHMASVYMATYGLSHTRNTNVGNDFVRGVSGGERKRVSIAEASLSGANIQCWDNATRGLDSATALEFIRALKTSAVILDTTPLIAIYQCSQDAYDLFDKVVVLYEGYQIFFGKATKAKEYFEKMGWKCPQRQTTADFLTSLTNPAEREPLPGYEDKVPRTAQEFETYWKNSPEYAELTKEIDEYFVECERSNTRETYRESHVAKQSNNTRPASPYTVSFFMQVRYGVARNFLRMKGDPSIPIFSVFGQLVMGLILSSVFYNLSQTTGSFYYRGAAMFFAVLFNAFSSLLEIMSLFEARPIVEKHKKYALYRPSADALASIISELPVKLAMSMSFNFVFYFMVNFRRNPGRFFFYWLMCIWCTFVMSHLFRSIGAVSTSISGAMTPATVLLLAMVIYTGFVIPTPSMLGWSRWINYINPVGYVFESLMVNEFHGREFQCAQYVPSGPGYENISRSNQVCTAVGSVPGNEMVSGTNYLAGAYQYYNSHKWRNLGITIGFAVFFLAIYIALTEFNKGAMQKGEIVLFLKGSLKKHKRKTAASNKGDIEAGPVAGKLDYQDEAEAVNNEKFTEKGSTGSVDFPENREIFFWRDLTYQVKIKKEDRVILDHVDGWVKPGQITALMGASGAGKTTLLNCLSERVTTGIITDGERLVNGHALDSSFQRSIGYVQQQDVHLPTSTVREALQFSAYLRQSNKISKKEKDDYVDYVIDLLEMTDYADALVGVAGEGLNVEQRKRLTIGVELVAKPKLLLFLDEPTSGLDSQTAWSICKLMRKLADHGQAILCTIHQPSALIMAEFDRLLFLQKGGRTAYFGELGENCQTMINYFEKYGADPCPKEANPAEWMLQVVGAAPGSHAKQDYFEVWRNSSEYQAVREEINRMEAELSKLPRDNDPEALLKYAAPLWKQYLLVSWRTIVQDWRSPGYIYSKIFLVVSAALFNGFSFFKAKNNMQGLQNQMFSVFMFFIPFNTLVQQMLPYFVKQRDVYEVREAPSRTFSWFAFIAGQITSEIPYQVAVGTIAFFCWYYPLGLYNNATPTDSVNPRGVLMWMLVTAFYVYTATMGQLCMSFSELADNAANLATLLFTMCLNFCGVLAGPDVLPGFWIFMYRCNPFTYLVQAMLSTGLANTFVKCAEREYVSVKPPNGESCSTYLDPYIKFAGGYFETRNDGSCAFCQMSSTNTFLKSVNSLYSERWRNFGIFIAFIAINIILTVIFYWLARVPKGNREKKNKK

[3] = biological target: 26S proteasome non-ATPase regulatory subunit 14 (Homo sapiens, UniProt O00487); assay: inhibition of proteasome subunit RPN11 – biochemical, fluorescence polarization, uHTS hits, confirmation (AID 602368); assay type: functional
Chain of 26S proteasome non-ATPase regulatory subunit 14 (O00487 whole entry, the tested form may be a part): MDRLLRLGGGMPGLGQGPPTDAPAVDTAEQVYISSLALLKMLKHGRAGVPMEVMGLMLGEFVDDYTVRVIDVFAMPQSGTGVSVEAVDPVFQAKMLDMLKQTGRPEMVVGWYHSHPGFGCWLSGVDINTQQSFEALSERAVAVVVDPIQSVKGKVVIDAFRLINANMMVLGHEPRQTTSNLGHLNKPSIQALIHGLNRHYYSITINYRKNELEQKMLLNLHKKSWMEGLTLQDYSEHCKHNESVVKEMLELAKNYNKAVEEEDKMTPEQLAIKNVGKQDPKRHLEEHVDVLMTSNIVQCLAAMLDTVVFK

[4] = biological target: T2, RNA-binding protein pos-1 (Caenorhabditis elegans, UniProt G5EF15); assay: disruptors of C. elegans POS-1 RNA interaction – biochemical, fluorescence polarization, dose response (AID 1964);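 also: purified POS-1 fused to maltose binding protein made in E. coli; potency of compounds blocking POS-1 binding to fluorescent RNA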
T2 sequence (G5EF15 whole entry): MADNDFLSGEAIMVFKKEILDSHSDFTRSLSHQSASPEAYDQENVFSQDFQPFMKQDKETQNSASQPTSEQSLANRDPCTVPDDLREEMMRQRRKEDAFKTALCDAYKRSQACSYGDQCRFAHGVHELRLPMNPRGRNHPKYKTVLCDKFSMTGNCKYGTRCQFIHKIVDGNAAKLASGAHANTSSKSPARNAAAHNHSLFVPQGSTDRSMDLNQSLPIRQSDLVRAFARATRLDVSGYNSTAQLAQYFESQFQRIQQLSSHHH

[5] = biological target: T3, Multidrug resistance protein CDR2 (Candida albicans (strain SC5314 / ATCC MYA-2876) (Yeast), UniProt P78595); assay: inhibition of Nile Red efflux via Candida CDR2 – S. cerevisiae AD1-8u, singleplex, Cherry Pick1 hits, dose response (AID 588604); assay type: functional
T3 sequence (P78595 whole entry): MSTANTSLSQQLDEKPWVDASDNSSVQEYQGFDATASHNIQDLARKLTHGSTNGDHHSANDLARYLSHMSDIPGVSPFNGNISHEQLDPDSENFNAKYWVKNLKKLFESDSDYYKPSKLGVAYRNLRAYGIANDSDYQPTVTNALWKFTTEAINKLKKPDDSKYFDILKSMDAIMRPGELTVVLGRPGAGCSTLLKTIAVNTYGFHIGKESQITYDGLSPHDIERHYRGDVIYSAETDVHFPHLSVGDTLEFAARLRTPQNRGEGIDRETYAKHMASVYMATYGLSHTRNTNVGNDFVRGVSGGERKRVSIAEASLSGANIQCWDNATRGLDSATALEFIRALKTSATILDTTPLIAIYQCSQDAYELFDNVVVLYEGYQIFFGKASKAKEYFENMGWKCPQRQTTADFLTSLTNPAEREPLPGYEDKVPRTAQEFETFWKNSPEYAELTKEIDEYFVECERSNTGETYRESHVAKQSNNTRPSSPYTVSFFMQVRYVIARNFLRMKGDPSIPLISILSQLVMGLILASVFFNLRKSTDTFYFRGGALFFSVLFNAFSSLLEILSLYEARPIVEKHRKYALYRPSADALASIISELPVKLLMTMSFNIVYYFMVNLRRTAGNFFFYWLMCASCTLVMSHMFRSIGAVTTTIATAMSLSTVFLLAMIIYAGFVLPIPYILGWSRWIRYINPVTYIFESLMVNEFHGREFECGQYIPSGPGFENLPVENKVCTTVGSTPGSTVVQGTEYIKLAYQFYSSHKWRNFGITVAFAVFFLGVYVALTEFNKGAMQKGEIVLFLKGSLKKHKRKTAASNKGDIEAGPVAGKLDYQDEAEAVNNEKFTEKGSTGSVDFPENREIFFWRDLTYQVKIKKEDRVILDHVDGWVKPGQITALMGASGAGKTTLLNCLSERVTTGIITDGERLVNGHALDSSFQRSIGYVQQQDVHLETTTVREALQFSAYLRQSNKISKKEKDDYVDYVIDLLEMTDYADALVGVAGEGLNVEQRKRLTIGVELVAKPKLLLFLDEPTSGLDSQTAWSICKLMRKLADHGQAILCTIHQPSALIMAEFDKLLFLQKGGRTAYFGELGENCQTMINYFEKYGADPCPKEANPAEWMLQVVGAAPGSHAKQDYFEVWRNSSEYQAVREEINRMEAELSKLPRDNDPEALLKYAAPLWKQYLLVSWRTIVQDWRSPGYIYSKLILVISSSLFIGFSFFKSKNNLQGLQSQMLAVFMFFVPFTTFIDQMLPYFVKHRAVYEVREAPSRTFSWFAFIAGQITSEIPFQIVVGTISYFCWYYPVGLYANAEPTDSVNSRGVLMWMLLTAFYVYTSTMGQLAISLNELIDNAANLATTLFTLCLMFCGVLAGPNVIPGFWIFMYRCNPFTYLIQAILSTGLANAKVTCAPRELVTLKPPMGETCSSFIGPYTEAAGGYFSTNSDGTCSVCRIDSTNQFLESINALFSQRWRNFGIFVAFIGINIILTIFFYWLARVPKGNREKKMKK

Genome polyprotein = Genome polyprotein (dengue virus type 2, UniProt P29990); assay: flavivirus cap methylation enzyme inhibition – biochemical, confirmation dose response, primary screen (AID 588689); assay type: functional
[6] = biological target: DNA (cytosine-5)-methyltransferase 1 (Homo sapiens, UniProt P26358); assay: inhibition of DNA methylation by DNMT1 – biochemical, fluorescent molecular beacon, confirmation (AID 602386); assay type: functional
Chain of DNA (cytosine-5)-methyltransferase 1 (P26358 whole entry): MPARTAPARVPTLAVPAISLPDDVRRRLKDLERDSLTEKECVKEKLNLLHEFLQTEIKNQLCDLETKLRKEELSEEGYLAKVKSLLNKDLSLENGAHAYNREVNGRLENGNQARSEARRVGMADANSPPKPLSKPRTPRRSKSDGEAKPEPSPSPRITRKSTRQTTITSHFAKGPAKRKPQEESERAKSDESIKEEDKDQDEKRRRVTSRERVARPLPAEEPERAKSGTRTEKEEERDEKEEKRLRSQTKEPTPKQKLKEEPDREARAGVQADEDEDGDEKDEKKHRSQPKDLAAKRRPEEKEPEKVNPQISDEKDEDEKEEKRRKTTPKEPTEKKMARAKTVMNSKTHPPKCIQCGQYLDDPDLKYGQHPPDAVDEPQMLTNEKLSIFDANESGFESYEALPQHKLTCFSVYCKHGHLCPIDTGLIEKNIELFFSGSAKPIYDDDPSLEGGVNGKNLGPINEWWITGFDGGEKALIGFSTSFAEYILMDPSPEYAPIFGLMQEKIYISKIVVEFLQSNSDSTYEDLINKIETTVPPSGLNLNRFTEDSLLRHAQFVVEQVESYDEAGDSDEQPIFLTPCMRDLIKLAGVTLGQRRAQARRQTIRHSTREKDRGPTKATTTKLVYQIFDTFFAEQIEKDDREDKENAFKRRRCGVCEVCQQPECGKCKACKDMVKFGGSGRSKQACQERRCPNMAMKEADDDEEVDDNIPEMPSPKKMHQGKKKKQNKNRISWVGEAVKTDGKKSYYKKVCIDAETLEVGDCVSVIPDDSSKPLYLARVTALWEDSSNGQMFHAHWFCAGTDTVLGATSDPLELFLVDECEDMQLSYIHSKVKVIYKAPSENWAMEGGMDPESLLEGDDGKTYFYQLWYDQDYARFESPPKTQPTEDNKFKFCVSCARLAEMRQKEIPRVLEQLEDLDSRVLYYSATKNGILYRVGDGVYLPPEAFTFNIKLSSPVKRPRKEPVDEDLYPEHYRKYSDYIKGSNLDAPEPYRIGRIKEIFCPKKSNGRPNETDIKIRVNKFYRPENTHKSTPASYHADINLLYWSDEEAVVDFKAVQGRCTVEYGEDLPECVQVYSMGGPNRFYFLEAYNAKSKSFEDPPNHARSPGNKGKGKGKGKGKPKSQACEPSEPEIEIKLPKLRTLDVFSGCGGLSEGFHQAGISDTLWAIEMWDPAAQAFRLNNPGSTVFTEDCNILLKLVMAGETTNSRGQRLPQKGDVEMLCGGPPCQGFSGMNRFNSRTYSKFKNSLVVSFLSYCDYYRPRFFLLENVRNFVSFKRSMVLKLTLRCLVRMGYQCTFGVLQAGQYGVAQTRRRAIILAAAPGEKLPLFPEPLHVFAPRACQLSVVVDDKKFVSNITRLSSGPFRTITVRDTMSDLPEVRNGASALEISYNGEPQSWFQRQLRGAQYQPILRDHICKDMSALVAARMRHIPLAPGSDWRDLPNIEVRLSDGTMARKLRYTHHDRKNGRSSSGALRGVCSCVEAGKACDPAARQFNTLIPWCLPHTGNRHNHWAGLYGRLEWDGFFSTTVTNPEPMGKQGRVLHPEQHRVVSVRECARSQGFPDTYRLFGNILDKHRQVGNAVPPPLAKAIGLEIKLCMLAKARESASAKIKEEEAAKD

[7] = biological target: 72 kDa type IV collagenase (Homo sapiens, UniProt P08253); assay: Dose Response validation of uHTS RPN11 inhibitor hits using a MMP-2 Fluorescence assay.; assay type: functional
Chain of 72 kDa type IV collagenase (P08253 whole entry): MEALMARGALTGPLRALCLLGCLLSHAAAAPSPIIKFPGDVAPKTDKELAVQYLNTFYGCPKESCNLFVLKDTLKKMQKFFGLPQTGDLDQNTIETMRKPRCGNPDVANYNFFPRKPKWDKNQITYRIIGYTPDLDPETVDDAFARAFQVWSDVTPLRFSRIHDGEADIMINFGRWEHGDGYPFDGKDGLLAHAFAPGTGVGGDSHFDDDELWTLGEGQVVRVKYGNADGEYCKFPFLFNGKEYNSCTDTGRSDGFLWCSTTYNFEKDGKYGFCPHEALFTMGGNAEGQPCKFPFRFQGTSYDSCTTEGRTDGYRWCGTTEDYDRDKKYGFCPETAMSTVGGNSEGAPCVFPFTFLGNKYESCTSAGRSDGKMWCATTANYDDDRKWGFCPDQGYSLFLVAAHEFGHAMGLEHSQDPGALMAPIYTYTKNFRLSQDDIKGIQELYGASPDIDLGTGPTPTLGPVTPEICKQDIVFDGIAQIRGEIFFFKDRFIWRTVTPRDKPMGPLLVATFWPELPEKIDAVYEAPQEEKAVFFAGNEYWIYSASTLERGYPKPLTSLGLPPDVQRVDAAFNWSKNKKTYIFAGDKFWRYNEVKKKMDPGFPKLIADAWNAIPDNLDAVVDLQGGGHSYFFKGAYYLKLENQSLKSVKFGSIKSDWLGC

[8] = biological target: Benomyl/methotrexate resistance protein (Candida albicans, UniProt P28873); assay: Candida albicans Mdr1 pump inhibition curves – singleplex, Cherry Pick1 hits, dose response (AID 588608); assay type: functional
Chain of Benomyl/methotrexate resistance protein (P28873 whole entry): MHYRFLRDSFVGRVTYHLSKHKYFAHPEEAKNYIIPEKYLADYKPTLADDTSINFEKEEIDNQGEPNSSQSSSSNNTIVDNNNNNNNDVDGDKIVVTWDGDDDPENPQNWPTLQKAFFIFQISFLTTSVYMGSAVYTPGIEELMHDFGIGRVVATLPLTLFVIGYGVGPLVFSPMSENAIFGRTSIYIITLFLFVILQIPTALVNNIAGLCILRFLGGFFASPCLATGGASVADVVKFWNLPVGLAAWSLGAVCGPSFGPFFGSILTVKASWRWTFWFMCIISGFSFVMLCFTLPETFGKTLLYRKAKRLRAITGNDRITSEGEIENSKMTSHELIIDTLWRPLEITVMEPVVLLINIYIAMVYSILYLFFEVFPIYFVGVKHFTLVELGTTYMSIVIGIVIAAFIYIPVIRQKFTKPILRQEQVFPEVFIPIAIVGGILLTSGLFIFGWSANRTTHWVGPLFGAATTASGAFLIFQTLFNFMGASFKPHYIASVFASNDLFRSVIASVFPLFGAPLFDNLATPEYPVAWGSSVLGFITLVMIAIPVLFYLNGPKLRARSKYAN

Prothrombin = Prothrombin (Bos taurus, UniProt P00735); assay: thrombin protease inhibitors – biochemical, fluorescence polarization, uHTS hits, dose response (AID 602369); assay type: functional
[9] = biological target: T4, Rac GTPase-activating protein 1 (Homo sapiens, UniProt Q9H0H5); assay: blockers of MgcRacGAP-driven Rac1 GTP hydrolysis – biochemical, ADP Hunter fluorescence, primary and confirmatory, confirmation (AID 624330); assay type: functional
T4 sequence (Q9H0H5 whole entry): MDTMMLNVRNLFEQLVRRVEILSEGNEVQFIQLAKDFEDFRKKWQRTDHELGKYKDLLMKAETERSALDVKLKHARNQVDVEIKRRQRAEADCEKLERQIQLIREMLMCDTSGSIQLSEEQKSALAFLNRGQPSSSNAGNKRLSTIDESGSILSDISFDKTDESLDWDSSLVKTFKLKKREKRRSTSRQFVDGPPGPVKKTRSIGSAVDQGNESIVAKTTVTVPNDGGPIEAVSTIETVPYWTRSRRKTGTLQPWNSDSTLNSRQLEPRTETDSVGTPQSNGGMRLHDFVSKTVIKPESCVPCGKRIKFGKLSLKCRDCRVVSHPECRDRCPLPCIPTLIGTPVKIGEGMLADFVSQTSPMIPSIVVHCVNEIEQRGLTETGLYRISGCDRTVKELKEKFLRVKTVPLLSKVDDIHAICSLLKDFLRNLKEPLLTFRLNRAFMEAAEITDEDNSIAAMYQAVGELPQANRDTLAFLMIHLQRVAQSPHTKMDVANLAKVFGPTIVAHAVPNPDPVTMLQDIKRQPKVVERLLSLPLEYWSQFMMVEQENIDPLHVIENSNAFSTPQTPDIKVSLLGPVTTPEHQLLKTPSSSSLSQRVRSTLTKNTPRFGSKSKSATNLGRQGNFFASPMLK

[10] = biological target: T5, High affinity choline transporter 1 (Homo sapiens, UniProt Q9GZV3); assay: human choline transporter blockers, potency – cell-based, 5-point CRC, membrane potential dye, dose response (AID 504840); assay type: functional
T5 sequence (Q9GZV3 whole entry): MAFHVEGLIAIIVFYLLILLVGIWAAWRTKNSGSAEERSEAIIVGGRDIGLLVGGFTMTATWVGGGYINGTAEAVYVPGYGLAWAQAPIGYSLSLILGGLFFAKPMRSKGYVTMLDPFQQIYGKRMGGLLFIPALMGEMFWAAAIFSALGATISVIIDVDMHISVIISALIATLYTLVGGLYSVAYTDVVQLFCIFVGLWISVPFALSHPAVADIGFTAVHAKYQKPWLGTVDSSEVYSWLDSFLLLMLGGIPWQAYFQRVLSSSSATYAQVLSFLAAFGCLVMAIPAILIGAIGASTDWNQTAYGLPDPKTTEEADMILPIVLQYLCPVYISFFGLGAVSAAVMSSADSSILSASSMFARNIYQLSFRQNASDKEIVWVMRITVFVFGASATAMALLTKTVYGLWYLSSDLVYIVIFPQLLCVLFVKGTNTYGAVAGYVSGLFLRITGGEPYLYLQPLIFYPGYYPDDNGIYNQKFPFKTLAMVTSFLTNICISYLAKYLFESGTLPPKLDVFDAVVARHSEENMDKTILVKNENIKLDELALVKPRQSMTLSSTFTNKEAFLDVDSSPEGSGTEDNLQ

[11] = biological target: T5, High affinity choline transporter 1; assay: human choline transporter blockers, potency – cell-based, 10-point CRC, membrane potential dye, dose response (AID 588401); assay type: functional;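 also: membrane potential dye fluorescence of choline-evoked depolarization via CHT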
[12] = biological target: T6, Apoptotic protease-activating factor 1 (Homo sapiens, UniProt O14727); assay: SAR analysis of small molecule Activators of Apaf-1 in a Fluorescent assay.; assay type: functional; settings: read-out: EC50_Mean;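 also: caspase-3 cleavage of fluorogenic Rh110 DEVD substrate downstream of apoptosome activation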
T6 sequence (O14727 whole entry): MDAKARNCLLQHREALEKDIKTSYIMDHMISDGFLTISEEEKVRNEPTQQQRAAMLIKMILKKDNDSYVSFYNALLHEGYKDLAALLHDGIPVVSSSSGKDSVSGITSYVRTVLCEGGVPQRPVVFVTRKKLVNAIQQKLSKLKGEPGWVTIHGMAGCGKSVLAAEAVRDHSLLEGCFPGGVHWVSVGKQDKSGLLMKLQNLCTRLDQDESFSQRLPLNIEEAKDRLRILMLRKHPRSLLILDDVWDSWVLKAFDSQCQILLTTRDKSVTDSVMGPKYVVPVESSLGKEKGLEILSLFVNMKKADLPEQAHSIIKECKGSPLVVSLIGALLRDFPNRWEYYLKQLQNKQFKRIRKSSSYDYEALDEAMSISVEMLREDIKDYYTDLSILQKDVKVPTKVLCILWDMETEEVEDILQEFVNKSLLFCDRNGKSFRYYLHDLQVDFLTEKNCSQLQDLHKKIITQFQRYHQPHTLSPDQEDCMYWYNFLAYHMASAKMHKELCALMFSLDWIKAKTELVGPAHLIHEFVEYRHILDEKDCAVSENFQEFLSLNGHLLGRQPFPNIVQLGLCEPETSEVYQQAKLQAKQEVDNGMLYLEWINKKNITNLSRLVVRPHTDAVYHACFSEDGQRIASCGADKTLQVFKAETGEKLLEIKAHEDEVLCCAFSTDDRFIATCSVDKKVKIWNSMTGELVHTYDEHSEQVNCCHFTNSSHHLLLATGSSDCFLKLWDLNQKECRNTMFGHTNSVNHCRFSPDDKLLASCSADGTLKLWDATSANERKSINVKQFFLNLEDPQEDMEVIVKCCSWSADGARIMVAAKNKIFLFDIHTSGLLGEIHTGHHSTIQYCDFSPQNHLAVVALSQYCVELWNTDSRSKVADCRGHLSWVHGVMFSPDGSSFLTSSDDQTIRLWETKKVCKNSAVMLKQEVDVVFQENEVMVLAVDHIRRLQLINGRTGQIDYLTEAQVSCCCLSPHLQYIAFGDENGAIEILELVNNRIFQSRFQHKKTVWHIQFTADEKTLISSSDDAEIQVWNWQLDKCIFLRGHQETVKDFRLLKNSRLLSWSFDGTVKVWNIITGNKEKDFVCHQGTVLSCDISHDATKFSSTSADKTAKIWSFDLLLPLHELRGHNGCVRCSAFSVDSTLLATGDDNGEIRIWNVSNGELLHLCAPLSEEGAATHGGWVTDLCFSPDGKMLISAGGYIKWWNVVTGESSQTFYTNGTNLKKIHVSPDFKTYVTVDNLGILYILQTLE

SMILES: O=C(O)CCN1C(=O)/C(=C/c2ccc(-c3nc4ccccc4s3)o2)SC1=S
EC50 [1]: 21.8 µM (active) | EC50 [2]: 11.2 µM (active) | IC50 [3]: 2.93 µM (active) | EC50 [4]: 32.3 µM (active) | EC50 [5]: 12.1 µM (active) | IC50 (Genome polyprotein): > 100 µM (active) | IC50 [6]: 4.66 µM (active) | IC50 [7]: > 100 µM (inactive) | EC50 [8]: 0.102 µM (active) | IC50 (Prothrombin): 5.11 µM (active) | IC50 [9]: 30.6 µM (active)

IC50 [10]: 8.38 µM (active) | IC50 [11]: 4.47 µM (active)
SMILES: CCc1cc(C(=O)Cc2ccc(F)cc2)c(O)cc1O

IC50 [10]: 4.47 µM (active) | IC50 [11]: 2.38 µM (active)
SMILES: COc1ccc(C(=O)NCc2cnn(C)c2C)cc1OC1CCN(C(C)C)CC1

EC50 [12]: > 100 µM (inactive)
SMILES: COc1ccc(Cl)cc1NC(=O)CCS(=O)(=O)c1cc2c(cc1Br)CCN2C(C)=O

Source: ChEMBL document CHEMBL1201862, “PubChem BioAssay data set” (2004)
